Laboratory results from patent US12269901B2, “Peptide and use thereof” (ENSOL BIOSCIENCES, INC., priority 2019, dated 2025).

Tests used:
TNF-α = TNF-α mRNA expression in anti-CD28-stimulated splenocytes (RT-PCR, relative to GAPDH); format: cell-based; details: splenocytes of diabetic NOD mice, 2 ng/ml anti-mouse CD28, 100 mM peptide, 3 hr
Protocol: (§1) The end of the tail of the experimental animals prepared as in Example 2-1 was wounded once a week, and a drop of blood therefrom was measured for blood glucose levels using a glucometer (Roche, Accu-CHEK Performa). The blood glucose levels were confirmed to be “high” (600 mg/dL or more), the mice were subjected to cervical dislocation, and the spleen was extracted therefrom. A cell strainer (BD, 352350) was placed on a 50 ml tube, and the extracted spleen tissue was passed through the cell strainer using the plunger end of a syringe, after which the tube containing the strained cells was added with HBSS (Hanks' Balanced Salt solution) so that the cells were washed with water, followed by centrifugation (1,000 rpm, 5 min) to remove the supernatant. The cells were suspended with 1 ml of HBSS, added with 10 ml of 1×RBC lysis buffer (Ebioscience, 00-4333-57), mixed with gentle stirring, allowed to stand in ice for 5 min, and then centrifuged (1,000 rpm, 5 min) to remove the supernatant. The resulting cells were added with 10 ml of a RBC lysis buffer once more, allowed to stand in ice for 5 min, further centrifuged (1,000 rpm, 5 min) to remove the supernatant, and then washed two times with 10 ml of HBSS. After final centrifugation (1,000 rpm, 5 min), the cells were suspended with 1 ml of HBSS, 50 μl of the cells were diluted with a trypan blue solution at 1:1, and the number of cells was counted using a hemocytometer. […]
(§2) Thereafter, the cells were centrifuged (1,000 rpm, 5 min) to remove the supernatant, lysed through pipetting with 5 ml of TRIzol (Invitrogen, 15596-018), and allowed to stand at room temperature for 5 min. […] RNA was eluted by adding 30 μl of DEPC-treated water and quantified.
(§3) cDNA was synthesized through the experimental procedure for a cDNA synthesis kit (ELPISbio, EBT-1512) using […] of the quantified RNA. Then, in accordance with the procedure for a PCR (Polymerase Chain Reaction) kit (Solgent, SEF01-M50H), cDNA of each cytokine (IFN-γ, TNF-α, TGF-β1) and a housekeeping gene GAPDH for quantitative determination of changes in cytokine expression were amplified. […]

IFN-γ = IFN-γ mRNA expression in anti-CD28-stimulated splenocytes (RT-PCR, relative to GAPDH); format: cell-based; details: splenocytes of diabetic NOD mice, 2 ng/ml anti-mouse CD28, 100 mM peptide, 3 hr
Protocol: as §1, §2, §3

TGF-β1 = TGF-β1 mRNA expression in anti-CD28-stimulated splenocytes (RT-PCR, relative to GAPDH); format: cell-based; details: splenocytes of diabetic NOD mice, 2 ng/ml anti-mouse CD28, 100 mM peptide, 72 hr
Protocol: as §1, §2, §3

[1] = system: NOD/ShiLtJ mice with type 1 diabetes (insulitis); experiment: Effect of inhibiting or reducing development of insulitis (insulitis score of pancreatic islets, H&E); format: in vivo, mouse; details: NOD mice with type 1 diabetes, 5 mg/kg SC every morning and evening for 14 days, pancreas on 14th day
Description: (§4) The experimental animals were 8-week-old female NOD/ShiLtJ (Jackson Lab). NOD (Non-obese diabetic) mice are animal models of insulitis and type 1 diabetes. In these animals, it is known that type 1 diabetes occurs at 18 weeks of age on average and 90% of incidence thereof occurs by 30 weeks of age. All animals were housed under SPF barrier conditions. This study was approved by the Institutional Animal Care and Use Committee of Osong Medical Innovation Foundation Laboratory Animal Center (Kbio-IACUC-2018-066). The acclimation period was 1 week, and the light/dark cycle was 12 hr ([…]). The temperature was 20±2° C., and the relative humidity was 60 to 80%. Since the incidence of diabetes may be inhibited by intestinal microorganisms, water, the pH of which was adjusted to 2.8-3.2 using HCl, was supplied to the experimental animals.
(§5) The end of the tail of the experimental animals prepared above was wounded once a week and a drop of blood therefrom was measured for blood glucose levels using a glucometer (Roche, Accu-CHEK Performa). When the blood glucose levels were measured to be 250 mg/dL or more and the blood glucose levels remeasured on the third day thereafter was also 250 mg/dL or more, type 1 diabetes was considered to have occurred, and the experiment was conducted.
Two experimental animals with type 1 diabetes were selected as the treatment group of Example 1, and were subcutaneously (SC) administered with 100 μl of the peptide of Example 1 (5 mg/kg). The administration was performed every morning and evening for 14 days, and the blood glucose levels were measured using a glucometer. […] On the 14th day, one experimental animal, the blood glucose levels of which were measured to be less than 250 mg/dL, was selected as a normal group, and was used to compare the insulitis scores of experimental animals with type 1 diabetes and experimental animals without type 1 diabetes.
After measurement of the blood glucose levels on the 14th day, the pancreas was removed from the experimental animals and fixed in 10% […] buffered formalin (10% NBF, Sigma, HT5011) to manufacture a paraffin block. […] For the treatment group of Example 1, the number of islets in two animals was measured, individual islets were classified depending on the stage of insulitis to thus determine the insulitis score, and the number of islets corresponding to each insulitis stage among the total number of islets was represented as a percentage. For the negative control group and the normal group, the insulitis scores were determined as in the treatment group of Example 1, after which the number of islets corresponding to each insulitis stage among the total number of islets was represented as a percentage. […]

[2] = system: NOD/ShiLtJ mice with type 1 diabetes; experiment: Effect of lowering blood glucose levels in animals with type 1 diabetes; format: in vivo, mouse; details: NOD mice with type 1 diabetes, 5 mg/kg SC every morning and evening, up to 14 days, two animals; negative control (PBS) continuously increased
Description: as §4
as §5, with “conducted. […]” for “conducted.”

Substance | TNF-α mRNA expression level compared to the negative control group (anti-CD28) (TNF-α) | IFN-γ mRNA expression level compared to the negative control group (anti-CD28) (IFN-γ) | TGF-β1 mRNA expression level compared to the negative control group (anti-CD28) (TGF-β1) | percentage of islets in insulitis stage 3 compared to the negative control group [1] | percentage of islets in stage 0 (no insulitis) compared to the negative control group [1] | percentage of islets in stage 0 compared to the normal group [1] | percentages of islets in insulitis stages 0-2 compared to the negative control group [1] | blood glucose levels [2]
GAGAGY [Comparative Example 1] | did not greatly change | did not greatly change | did not greatly change | – | – | – | – | –
YGAGAG [Comparative Example 2] | increase | did not greatly change | did not greatly change | – | – | – | – | –
YGAGAGAGY [Example 1] | reduced | reduced | increased | decreased | approximately doubled | higher | increased | decreased significantly and then remained in the normal range
